Numbered stars: 1 amine (or outer) side, 2 acyl side, 3 side chain; on linkers, the order of the positions; unused ones are H or OH. Bridge positions count the residues as written; N and C are the ends. Square brackets hold non-standard residues; d marks the D form. Peptide text beside a SMILES is read from it. * marks the point of attachment. ξ: configuration not given here. Bip(4'-NHAc) = CC(=O)Nc1ccc(-c2ccc(C[C@H](N)C(=O)O)cc2)cc1; X30 = CCOc1cccc(-c2ccc(C[C@H](N[*:1])C(=O)[*:2])cc2)c1; Phe(4-COOH) = N[C@@H](Cc1ccc(C(=O)O)cc1)C(=O)O; Bip = N[C@@H](Cc1ccc(-c2ccccc2)cc1)C(=O)O; Phe(3-OMe) = COc1cccc(C[C@H](N)C(=O)O)c1; Phe(3-Me) = Cc1cccc(C[C@H](N)C(=O)O)c1; Val(3-OH) = CC(C)(O)[C@H](N)C(=O)O; 2Thi = N[C@@H](Cc1cccs1)C(=O)O; Cha = N[C@@H](CC1CCCCC1)C(=O)O; Cit = NC(=O)NCCC[C@H](N)C(=O)O; Ile(3ξ) = CCC(C)[C@H](N)C(=O)O; dCha = N[C@H](CC1CCCCC1)C(=O)O; Thr(3ξ) = CC(O)[C@H](N)C(=O)O; Carboxymethyl = O=C(O)C*; NMeA = CN[C@@H](C)C(=O)O; Dab = NCC[C@H](N)C(=O)O
Target: T1, PE-labeled human PD-L1-Ig binding to Jurkat cell line over-expressing human PD-1 (Jurkat-PD-1) (Homo sapiens, UniProt Q15116)
T1 construct: expressed in transfected cells; host or cells: Jurkat
T1 sequence (Q15116 25-288): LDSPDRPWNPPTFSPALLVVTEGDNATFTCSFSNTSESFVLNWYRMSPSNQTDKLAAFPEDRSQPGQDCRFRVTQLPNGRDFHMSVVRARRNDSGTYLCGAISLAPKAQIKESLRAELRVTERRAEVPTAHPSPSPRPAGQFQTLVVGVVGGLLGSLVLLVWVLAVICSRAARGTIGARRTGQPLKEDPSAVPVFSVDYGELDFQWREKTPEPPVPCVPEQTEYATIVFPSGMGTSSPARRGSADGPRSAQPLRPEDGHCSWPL
Experiment: Jurkat-PD-1 Cell Binding High-Content Screening Assay (CBA): Method 1
Settings: Jurkat-hPD-1 cells, PE-labeled PD-L1-Ig 20 nM final; read-out: Jurkat HPDL1 PD1 IC50 (uM) (Method 1)

SMILES | IC50 [µM]
Cc1cccc(C[C@@H]2NC(=O)[C@H](CC(=O)O)NC(=O)[C@H](Cc3ccc(OCC(=O)O)cc3)NC(=O)[C@H](Cc3ccc(OCC(=O)O)cc3)NC(=O)CSC[C@@H](C(N)=O)NC(=O)[C@H]([C@@H](C)O)NC(=O)[C@H](C(C)C)NC(=O)[C@H](CC3CCCCC3)NC(=O)[C@H](CCN)NC(=O)[C@@H](CC(C)C)NC(=O)[C@H](C)N(C)C(=O)[C@H](Cc3ccc(OCC(=O)O)cc3)NC(=O)[C@H](Cc3ccc(-c4ccccc4)cc3)NC(=O)[C@H](Cc3ccc(OCC(=O)O)cc3)NC2=O)c1 [Compound 1656] ({CH2CO}-Y(Carboxymethyl)Y(Carboxymethyl)D[Phe(3-Me)]Y(Carboxymethyl)[Bip]Y(Carboxymethyl)[NMeA][dL][Dab][Cha]VTC-NH2; thioether N-14) | 0.03
CC(C)C[C@@H]1NC(=O)[C@H](CC(N)=O)NC(=O)[C@@H](CC(C)C)NC(=O)[C@H](C)N(C)C(=O)[C@H](CCCNC(N)=O)NC(=O)[C@H](Cc2ccc(-c3ccccc3)cc2)NC(=O)[C@H](C(C)C)NC(=O)[C@H](Cc2c[nH]c3ccccc23)NC(=O)[C@H](CC(=O)O)NC(=O)[C@H](Cc2ccc(O)cc2)NC(=O)[C@H](Cc2ccccc2)NC(=O)CSC[C@@H](C(=O)N[C@@H](C)C(=O)N[C@@H](CCN)C(=O)O)NC(=O)[C@H](CO)NC(=O)[C@H](C(C)C)NC1=O [Compound 2000] ({CH2CO}-FYDWV[Bip][Cit][NMeA][dL]NLVSCA[Dab]-OH; thioether N-14) | 0.02
CC(C)C[C@@H]1NC(=O)[C@H](CCN)NC(=O)[C@@H](CC(C)C)NC(=O)[C@H](C)N(C)C(=O)[C@H](CCC(=O)O)NC(=O)[C@H](Cc2ccc(-c3ccccc3)cc2)NC(=O)[C@H](C(C)C)NC(=O)[C@H](Cc2c[nH]c3ccccc23)NC(=O)[C@H](CC(=O)O)NC(=O)[C@H](Cc2ccc(O)cc2)NC(=O)[C@H](CC(N)=O)NC(=O)CSC[C@@H](C(=O)N[C@@H](C)C(N)=O)NC(=O)[C@H](CO)NC(=O)[C@H](C(C)C)NC1=O [Compound 1248] ({CH2CO}-NYDWV[Bip]E[NMeA][dL][Dab]LVSCA-NH2; thioether N-14) | 0.07
COc1cccc(C[C@@H]2NC(=O)[C@H](CC(N)=O)NC(=O)CSC[C@@H](C(=O)N[C@@H](C)C(N)=O)NC(=O)[C@H]([C@@H](C)O)NC(=O)[C@H](C(C)C)NC(=O)[C@H](CC(C)C)NC(=O)[C@H](CCN)NC(=O)[C@@H](CC(C)C)NC(=O)[C@H](C)N(C)C(=O)[C@H](CCCNC(=N)N)NC(=O)[C@H](Cc3ccc(-c4ccccc4)cc3)NC(=O)[C@H](C(C)C)NC(=O)[C@H](Cc3c[nH]c4ccccc34)NC(=O)[C@H](CC(=O)O)NC2=O)c1 [Compound 1307] ({CH2CO}-N[Phe(3-OMe)]DWV[Bip]R[NMeA][dL][Dab]LVTCA-NH2; thioether N-14) | 0.1
CCC(C)[C@@H]1NC(=O)[C@H](Cc2ccc(-c3ccccc3)cc2)NC(=O)[C@H](C(C)C)NC(=O)[C@H](Cc2c[nH]c3ccccc23)NC(=O)[C@H](CC(=O)O)NC(=O)[C@H](Cc2ccc(OCC(=O)O)cc2)NC(=O)[C@H](C(C)O)NC(=O)CSC[C@@H](C(=O)N[C@@H](CO)C(=O)O)NC(=O)[C@H](C(C)O)NC(=O)[C@H](C(C)C)NC(=O)[C@H](CC2CCCCC2)NC(=O)[C@H](CCN)NC(=O)[C@@H](CC(C)C)NC(=O)[C@H](C)N(C)C1=O (stereo partly drawn) [Compound 2230] ({CH2CO}-[Thr(3ξ)]Y(Carboxymethyl)DWV[Bip][Ile(3ξ)][NMeA][dL][Dab][Cha]V[Thr(3ξ)]CS-OH; thioether N-14) | 0.03
CC[C@H](C)[C@@H]1NC(=O)[C@H](Cc2ccc(-c3ccccc3)cc2)NC(=O)[C@H](C(C)C)NC(=O)[C@H](Cc2c[nH]c3ccccc23)NC(=O)[C@H](CC(=O)O)NC(=O)[C@H](Cc2ccc(O)cc2)NC(=O)[C@H](CC(C)C)NC(=O)CSC[C@@H](C(=O)N[C@@H](C)C(N)=O)NC(=O)[C@H]([C@@H](C)O)NC(=O)[C@H](C(C)C)NC(=O)[C@H](CC(C)C)NC(=O)[C@H](CCN)NC(=O)[C@@H](CC(C)C)NC(=O)[C@H](C)N(C)C1=O [Compound 1392] ({CH2CO}-LYDWV[Bip]I[NMeA][dL][Dab]LVTCA-NH2; thioether N-14) | 0.04
CC(C)C[C@@H]1NC(=O)[C@H](CCCNC(=N)N)NC(=O)[C@@H](CC(C)C)NC(=O)[C@H](C)N(C)C(=O)[C@H](C(C)C)NC(=O)[C@H](Cc2ccc(-c3ccccc3)cc2)NC(=O)[C@H](C(C)C)NC(=O)[C@H](Cc2c[nH]c3ccccc23)NC(=O)[C@H](CC(=O)O)NC(=O)[C@H](Cc2ccc(O)cc2)NC(=O)[C@H](Cc2ccccc2)NC(=O)CSC[C@@H](C(=O)N[C@@H](C)C(N)=O)NC(=O)[C@H](CO)NC(=O)[C@H](C(C)C)NC1=O [Compound 1770] ({CH2CO}-FYDWV[Bip]V[NMeA][dL]RLVSCA-NH2; thioether N-14) | 0.04
Cc1cccc(C[C@@H]2NC(=O)[C@H](CC(=O)O)NC(=O)[C@H](Cc3ccc(C(=O)O)cc3)NC(=O)[C@H](Cc3ccc(OCC(=O)O)cc3)NC(=O)CSC[C@@H](C(=O)N[C@@H](CC(=O)O)C(N)=O)NC(=O)[C@H](CO)NC(=O)[C@H](C(C)C)NC(=O)[C@H](CC(C)C)NC(=O)[C@H](CC(N)=O)NC(=O)[C@@H](CC(C)C)NC(=O)[C@H](C)N(C)C(=O)[C@H](C(C)C)NC(=O)[C@H](Cc3ccc(-c4ccccc4)cc3)NC(=O)[C@H](CC(C)C)NC2=O)c1 [Compound 1602] ({CH2CO}-Y(Carboxymethyl)[Phe(4-COOH)]D[Phe(3-Me)]L[Bip]V[NMeA][dL]NLVSCD-NH2; thioether N-14) | 0.01
CC(C)C[C@@H]1NC(=O)[C@H](CCN)NC(=O)[C@@H](CC(C)C)NC(=O)[C@H](C)N(C)C(=O)CNC(=O)[C@H](Cc2ccc(-c3ccccc3)cc2)NC(=O)[C@H](C(C)C)NC(=O)[C@H](Cc2c[nH]c3ccccc23)NC(=O)[C@H](CC(=O)O)NC(=O)[C@H](Cc2ccc(O)cc2)NC(=O)[C@H](CC(N)=O)NC(=O)CSC[C@@H](C(=O)N[C@@H](C)C(N)=O)NC(=O)[C@H]([C@@H](C)O)NC(=O)[C@H](C(C)C)NC1=O [Compound 1281] ({CH2CO}-NYDWV[Bip]G[NMeA][dL][Dab]LVTCA-NH2; thioether N-14) | 0.33
CCOc1cccc(-c2ccc(C[C@@H]3NC(=O)[C@H](C(C)C)NC(=O)[C@H](Cc4c[nH]c5ccccc45)NC(=O)[C@H](CC(=O)O)NC(=O)[C@H](Cc4ccc(O)cc4)NC(=O)[C@H](CC(N)=O)NC(=O)CSC[C@@H](C(=O)N[C@@H](C)C(N)=O)NC(=O)[C@H]([C@@H](C)O)NC(=O)[C@H](C(C)C)NC(=O)[C@H](CC(C)C)NC(=O)[C@H](CCN)NC(=O)[C@@H](CC(C)C)NC(=O)[C@H](C)N(C)C(=O)[C@H](CCCNC(=N)N)NC3=O)cc2)c1 [Compound 1221] ({CH2CO}-NYDWV[X30]R[NMeA][dL][Dab]LVTCA-NH2; thioether N-14) | 0.22
CC(C)C[C@@H]1NC(=O)[C@H](CCN)NC(=O)[C@@H](CC(C)C)NC(=O)[C@H](C)N(C)C(=O)[C@H](C(C)C)NC(=O)[C@H](Cc2ccc(-c3ccccc3)cc2)NC(=O)[C@H](C(C)C)NC(=O)[C@H](Cc2c[nH]c3ccccc23)NC(=O)[C@H](CC(=O)O)NC(=O)[C@H](Cc2ccc(O)cc2)NC(=O)[C@H](CCCNC(=N)N)NC(=O)CSC[C@@H](C(=O)N[C@@H](C)C(N)=O)NC(=O)[C@H]([C@@H](C)O)NC(=O)[C@H](C(C)C)NC1=O [Compound 1394] ({CH2CO}-RYDWV[Bip]V[NMeA][dL][Dab]LVTCA-NH2; thioether N-14) | 0.01
CC(C)C[C@@H]1NC(=O)[C@H](CCCNC(=N)N)NC(=O)[C@@H](CC2CCCCC2)NC(=O)[C@H](C)N(C)C(=O)[C@H](CCCNC(=N)N)NC(=O)[C@H](Cc2ccc(-c3ccccc3)cc2)NC(=O)[C@H](C(C)C)NC(=O)[C@H](Cc2c[nH]c3ccccc23)NC(=O)[C@H](CC(=O)O)NC(=O)[C@H](Cc2ccc(O)cc2)NC(=O)[C@H](Cc2ccccc2)NC(=O)CSC[C@@H](C(=O)N[C@@H](C)C(N)=O)NC(=O)[C@H]([C@@H](C)O)NC(=O)[C@H](C(C)C)NC1=O [Compound 1076] ({CH2CO}-FYDWV[Bip]R[NMeA][dCha]RLVTCA-NH2; thioether N-14) | 0.05
Cc1cccc(C[C@@H]2NC(=O)[C@H](CC(=O)O)NC(=O)[C@H](Cc3ccc(OCC(=O)O)cc3)NC(=O)[C@H](C(C)O)NC(=O)CSC[C@@H](C(=O)N[C@@H](CO)C(=O)O)NC(=O)[C@H](C(C)O)NC(=O)[C@H](C(C)C)NC(=O)[C@H](CC3CCCCC3)NC(=O)[C@H](CCN)NC(=O)[C@@H](CC(C)C)NC(=O)[C@H](C)N(C)C(=O)[C@H](Cc3ccc(OCC(=O)O)cc3)NC(=O)[C@H](Cc3ccc(-c4ccccc4)cc3)NC(=O)[C@H](Cc3ccc(C(=O)O)cc3)NC2=O)c1 (stereo partly drawn) [Compound 2231] ({CH2CO}-[Thr(3ξ)]Y(Carboxymethyl)D[Phe(3-Me)][Phe(4-COOH)][Bip]Y(Carboxymethyl)[NMeA][dL][Dab][Cha]V[Thr(3ξ)]CS-OH; thioether N-14) | 0.02
CC(=O)Nc1ccc(-c2ccc(C[C@@H]3NC(=O)[C@H](C(C)C)NC(=O)[C@H](Cc4c[nH]c5ccccc45)NC(=O)[C@H](CC(=O)O)NC(=O)[C@H](Cc4ccc(O)cc4)NC(=O)[C@H](Cc4ccccc4)NC(=O)CSC[C@@H](C(=O)N[C@@H](C)C(N)=O)NC(=O)[C@H]([C@@H](C)O)NC(=O)[C@H](C(C)C)NC(=O)[C@H](CC(C)C)NC(=O)[C@H](CCCNC(=N)N)NC(=O)[C@@H](CC(C)C)NC(=O)[C@H](C)N(C)C(=O)[C@H](CCCNC(=N)N)NC3=O)cc2)cc1 [Compound 1067] ({CH2CO}-FYDWV[Bip(4'-NHAc)]R[NMeA][dL]RLVTCA-NH2; thioether N-14) | 0.12
CCC(C)[C@@H]1NC(=O)[C@H](Cc2ccc(-c3ccccc3)cc2)NC(=O)[C@H](C(C)C)NC(=O)[C@H](Cc2c[nH]c3ccccc23)NC(=O)[C@H](CC(=O)O)NC(=O)[C@H](Cc2ccc(O)cc2)NC(=O)[C@H](Cc2cccs2)NC(=O)CSC[C@@H](C(=O)N2CCC[C@H]2C(N)=O)NC(=O)[C@H](C(C)O)NC(=O)[C@H](C(C)(C)O)NC(=O)[C@H](CC2CCCCC2)NC(=O)[C@H](CC(N)=O)NC(=O)[C@@H](CC(C)C)NC(=O)[C@H](C)N(C)C1=O (stereo partly drawn) [Compound 2174] ({CH2CO}-[2Thi]YDWV[Bip][Ile(3ξ)][NMeA][dL]N[Cha][Val(3-OH)][Thr(3ξ)]CP-NH2; thioether N-14) | 0.31
